Data from patent publication US20080207632A1, “PROTEIN KINASE INHIBITORS” (SUPERGEN, INC., priority 2006, published 2008).
Read-outs that look alike come from different tables or passages of the source.

What was measured:
[1] = test system: Aurora-2 kinase (Aurora-A) over Aurora-1 kinase (Aurora-B); experiment: SelectScreen kinase assay, specificity within the Aurora kinase family; type: biochemical; settings: SelectScreen kinase assay system
Experimental: In order to determine the specificity of compound 2-3 within the Aurora kinase family, both Aurora-2 kinase (Aurora-A) and Aurora-1 kinase (Aurora-B) were examined for sensitivity to this molecule. These studies were performed using the SelectScreen kinase assay system (Invitrogen Corp.; Madison, Wis.) and gave rise to the results presented in FIG. 2.

DU145 carcinoma = experiment: DU145 prostate cancer xenograft; type: in vivo
Experimental: In this study, DU145 carcinoma model was used to evaluate the anti-tumor efficacy of compound 2-3. The murine xenograft model was established by inoculating 2×10^6 cells into each Balb/c nude mouse via s.c. injection. When the average tumor size reached ˜100 mm^3, the mice were randomly divided into different experimental groups based on tumor size. Subcutaneous administration of compound 2-3 was conducted via an Alzet osmotic pump. On day 30 a second cycle of dosing was initiated.

[2] = test system: Granta-22 lymphoma cell line; experiment: lymphoma cell number reduction, Granta-22; type: cell-based; settings: 48 hours; read-out: IC50 Values Granta-22, single agent
Experimental: (§1) New IC50 values were calculated for the second agent in an effort to determine whether or not pretreatment with one compound would increase sensitivity to the other. As set forth in the table below, compound 2-3 pretreatment led to an increased sensitivity to Taxol®, however Taxol® pretreatment appeared to be […] to compound 2-3 in this assay.

[3] = test system: Histone H3 phospho-Serine 10 in MiaPaCa-2 cells; experiment: Western Blot for Histone H3 phospho-Serine 10; type: cell-based; settings: synchronized MiaPaCa-2 cells, 30 µM compound, 24 hours
Excerpt: A hallmark of Aurora-2 kinase inhibition, which distinguishes it from Aurora-1 kinase inhibition, is an increase in Histone H3 phosphorylation on Serine 10, an activity which is controlled by Aurora-1 kinase. This is in contrast to the decrease in Histone H3 phosphorylation that has been observed with Aurora-1 kinase inhibition. Compound 2-3 was examined for its effect on Histone H3 phosphorylation, in order to further verify its specificity for Aurora-2 kinsase. Briefly, MiaPaCa-2 cells were grown in 25 cm^2 flasks to approximately 40% confluency, and then synchronized with Aphidicolin and Hoechst 33342 as described above. Cell were then released and treated with 30 µM compound 2-3 in culture medium for 24 hours. Cells were then lysed, and total protein was quantified. 50 μg of total protein was electrophoresed and transferred to nitrocellulose, at which time Western Blot analysis for Histone H3 phospho-Serine 10 was performed. […] This signal quickly disappeared, as the cells began to undergo apoptosis, as discussed earlier.

[4] = test system: Granta-4 lymphoma cell line; experiment: lymphoma cell number reduction, Granta-4; type: cell-based; settings: 48 hours; read-out: IC50 Values Granta-4, single agent
Experimental: as §1

Panc-1 cells = experiment: hollow fiber xenograft model (MTT), Panc-1; type: in vivo, athymic nude mice; settings: Panc-1 fibers implanted SC
Experimental: Compound 2-3 was tested against three tumor types in athymic nude mice using the hollow fiber xenograft model. After incubation and growth overnight, drug-permeable fibers containing tumor cells were surgically implanted either intraperitoneally (IP) or subcutaneously (SC) and allowed to grow for 24-hours. After treatment with compound 2-3, fibers were removed and tumor cell growth was measured using the MTT assay. A549, Panc-1 or HT-29 cells were injected into separate fibers and each mouse received a fiber containing each cell line both SC and IP totaling six fibers per mouse.

[5] = test system: HT-29 human colon cancer cells; experiment: HT-29 xenograft study in mice (Example 19); type: in vivo; settings: 25 mg/kg intraperitoneally, q.d.x 5 for two weeks
Experimental: In order to evaluate the effectiveness of compound 1-1 against tumor cells in a living system, a xenograft study was performed in mice. 1×10^7 HT-29 human colon cancer cells were injected subcutaneously into 16 Nu/Nu athymic nude mice (Charles River Laboratories, Wilmington, Mass.). Tumor volume was measured according to the formula ((Width)^2*Length)/2. Tumors were allowed to grow to approximately 100 mm^3 in volume (Day 0), at which point mice were randomized to two groups: Eight mice were treated with 25 mg/kg compound 1-1, while the other eight were given an equal volume of drug vehicle. For this study, the drug vehicle used was 60% propylene glycol, 30% polyethylene glycol 300, 10% ethanol with 150 mg/mL 2-hydroxypropyl-beta-cyclodextrin. Each mouse received 0.1 mL of drug or vehicle intraperitoneally on a q.d.x 5 schedule for two weeks, with two days rest between cycles.

[6] = test system: MDA-MB-231 breast carcinoma cells; experiment: cell proliferation assay (Cell-Titer-Glo), MDA-MB-231; type: cell-based; settings: Homo sapiens
Experimental: Cell culture-based assays can be used to evaluate the ability of compounds of the invention to inhibit one or more cellular activities, such as cancer cell growth and/or survival. Numerous cancer cell lines can be obtained from the American Type Culture Collection (ATCC) and other sources. Briefly, cells are seeded into 96-well, tissue-culture treated, opaque white plates (Thermo Electron, Vantaa, Finland), at between 5000 and 10000 cells per well, depending on the speed of cell proliferation, in 100 μl of appropriate growth medium (determined by the ATCC). Cells are then exposed to the appropriate concentration of drug or an equal amount of DMSO (drug diluent) and allowed to grow in its presence for 96 hours. Following this, 100 μl of Cell-Titer-Glo reagent (Promega, Inc., Madison, Wis.) is added to each well. Plates are then shaken for 2 minutes at room temperature to allow for cell lysis and incubated for 10 minutes to stabilize the luminescent signal. Similar to the Kinase-Glo assay reagent from Promega, this reagent contains both luciferase enzyme and its substrate luciferin. Luciferase, activated by ATP in the cell lysate, catalyzes the conversion of luciferin to oxyluciferin, a reaction which produces light. The amount of light produced is proportionate to the amount of ATP in the cell lysate, which is itself proportional to cell number and gives an index of cellular proliferation.
Compound 1-1 and Compound 2-11 were tested in a cell proliferation assay to determine potency in a cell-based assay format. Briefly, MDA-MB-231 breast carcinoma cells were inoculated onto 96-well plates and incubated in the presence of compounds for 96 hours. Following incubation, cells were lysed and ATP content used as a surrogate for cell number, using the Cell-Titer-Glo Luminescent Cell Viability Assay Kit (Promega Corp.). IC50 values, representing the concentration required to reduce cell number to 50% of untreated controls, were determined to be 20 uM for Compound 1-1 and 10 uM for Compound 2-11.

[7] = test system: HepG2 (hepatocellular carcinoma); experiment: in vitro cytotoxicity assay (Cell-Titer-Glo), HepG2; type: cell-based; settings: Homo sapiens, Table 10, 96 hours, read-out: IC50 HepG2 (inhibit cell growth to 50% of untreated)

Row | Structure (SMILES) | selectivity for Aurora-2 kinase over Aurora-1 kinase [1] | tumor growth (DU145 carcinoma; Alzet osmotic pump subcutaneous or intravenous, second cycle on day 30) | tolerability of repeat dose (weight loss) (DU145 carcinoma; repeat dose in mice) | efficacy by route of administration (DU145 carcinoma; subcutaneous versus intravenous) | IC50 [2] | Histone H3 Serine 10 phosphorylation [3] | IC50 [4] | tumor cell growth in fibers (Panc-1 cells; 20 mg/kg intravenous) | tumor cell growth in fibers (Panc-1 cells; 40 mg/kg intravenous) | toxicity through the duration of the study [5] | tumor growth inhibition in vivo [5] | IC50 ([6]; Example 65, 96 hours, read-out: IC50 (reduce cell number to 50% of untreated controls)) | IC50 ([6]; Table 10, 96 hours, read-out: IC50 MDA-MB-231 (inhibit cell growth to 50% of untreated)) | IC50 [7]
1 | COc1cc2[nH]c3ncnc(N4CCN(C(=S)Nc5ccc(S(=O)(=O)Nc6ccc(F)cc6)cc5)CC4)c3c2cc1OC [Compound 2-3, 4-(6,7-dimethoxy-9H-pyrimido[4,5-b]indol-4-yl)-N-(4-(N-(4-fluorophenyl)sulfamoyl)phenyl)piperazine-1-carbothioamide] | over 100 fold | led to a reduction in tumor growth | well tolerated | more effective when administered subcutaneously than intravenously | 6.67 µM | pronounced phosphorylation signal | 2.04 µM | 58.7 % growth | 60.9 % growth |  |  |  |  | 
2 | CC(=O)NS(=O)(=O)c1ccc(NC(=S)N2CCN(c3ncnc4[nH]c5cc(C(F)(F)F)c(Cl)cc5c34)CC2)cc1 [Compound 1-1, 4-(6-Chloro-7-trifluoromethyl-9H-pyrimido[4,5-b]indol-4-yl)-piperazine-1-carbothioic acid (4-acetylsulfamoyl-phenyl)-amide] |  |  |  |  |  |  |  |  |  | No noticeable toxicity | effective for inhibiting tumor growth in vivo | 20 µM | 20.2 µM | 7.83 µM
